Where two headings read alike, the source gives them in different places.
Columns and labels:
[1] = test system: Calu-6 human lung tumour xenografts; assay: Calu-6 Human Lung Cancer Xenograft Model; type: in vivo; conditions: athymic mice, p.o. 24 days
Method: Experiments were conducted in female athymic mice (Swiss nu/nu genotype, ≧6 weeks of age). Calu-6 human lung tumour xenografts were established in mice by injecting 1×10^6 cells ([…] containing 50% Matrigel®) subcutaneously in the dorsal flank. Tumour volumes were assessed using bilateral Vernier calliper measurement at least twice weekly and calculated using the formula (length×width)×√(length×width)×(π/6), where length was taken to be the longest diameter across the tumour and width the corresponding perpendicular. Mice were randomised into 4 treatment groups (10 mice/group) when the mean tumour volume reached approximately 0.2 cm^3. […] (0.5% w/v Methocel/0.1% w/v Tween 80).
Tumour growth inhibition from the start of treatment was assessed by comparison of the differences in tumour volume between control and treated groups.

[2] = target: c-Kit (stem cell factor receptor tyrosine kinase) (Homo sapiens, UniProt P10721); assay: c-Kit inhibition; type: biochemical
HUVEC = HUVEC assay, endothelial cell proliferation; type: cell-based; conditions: Homo sapiens
Calu-6 tumour xenograft = assay: in vivo solid tumour model of WO 00/47212, Calu-6 tumour xenograft; conditions: once-daily oral, 28 days

Chain of c-Kit (stem cell factor receptor tyrosine kinase) (P10721 26-976): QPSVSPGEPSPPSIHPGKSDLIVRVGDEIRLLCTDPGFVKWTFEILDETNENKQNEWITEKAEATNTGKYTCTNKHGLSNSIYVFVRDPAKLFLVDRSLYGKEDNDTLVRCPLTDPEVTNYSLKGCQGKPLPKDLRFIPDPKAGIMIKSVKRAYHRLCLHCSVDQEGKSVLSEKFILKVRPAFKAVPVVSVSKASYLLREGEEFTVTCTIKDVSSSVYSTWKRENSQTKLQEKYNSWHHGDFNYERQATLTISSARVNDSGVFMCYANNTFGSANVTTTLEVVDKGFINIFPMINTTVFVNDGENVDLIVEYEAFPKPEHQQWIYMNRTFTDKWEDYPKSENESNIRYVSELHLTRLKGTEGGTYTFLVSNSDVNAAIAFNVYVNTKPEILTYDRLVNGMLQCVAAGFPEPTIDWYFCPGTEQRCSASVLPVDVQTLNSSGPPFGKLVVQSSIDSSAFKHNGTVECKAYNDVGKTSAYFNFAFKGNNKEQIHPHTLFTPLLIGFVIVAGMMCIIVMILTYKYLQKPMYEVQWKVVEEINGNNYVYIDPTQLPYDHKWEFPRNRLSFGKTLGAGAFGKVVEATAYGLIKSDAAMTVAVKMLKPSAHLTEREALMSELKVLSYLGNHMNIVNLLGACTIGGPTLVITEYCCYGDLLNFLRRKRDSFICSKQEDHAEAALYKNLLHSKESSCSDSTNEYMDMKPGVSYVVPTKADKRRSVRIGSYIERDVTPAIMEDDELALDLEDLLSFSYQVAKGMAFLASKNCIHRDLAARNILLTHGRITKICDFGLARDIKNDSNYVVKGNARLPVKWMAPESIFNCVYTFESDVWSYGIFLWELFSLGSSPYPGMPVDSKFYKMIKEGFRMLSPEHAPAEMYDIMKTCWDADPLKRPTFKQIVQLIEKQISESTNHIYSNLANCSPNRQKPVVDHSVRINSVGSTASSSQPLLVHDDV

| Compound | tumour growth inhibition ([1]; AZD2171 1.5 mg/kg once daily alone) | inhibition of c-Kit [2] | IC50 (HUVEC; VEGF-stimulated, read-out: IC50, VEGF-stimulated endothelial cell proliferation) | IC50 (HUVEC; basal (no VEGF stimulation), read-out: IC50, basal endothelial cell proliferation) | inhibition of growth of Calu-6 tumour xenograft (Calu-6 tumour xenograft; 1.5 mg/kg/day, P<0.01) | inhibition of growth of Calu-6 tumour xenograft (Calu-6 tumour xenograft; 3 mg/kg/day, P<0.0001) | inhibition of growth of Calu-6 tumour xenograft (Calu-6 tumour xenograft; 6 mg/kg/day, P<0.0001) | tumour growth inhibition ([1]; AZD6244 3 mg/kg twice daily alone) |
| --- | --- | --- | --- | --- | --- | --- | --- | --- |
| COc1cc2c(Oc3ccc4[nH]c(C)cc4c3F)ncnc2cc1OCCCN1CCCC1 [AZD2171, 4-(4-fluoro-2-methyl-1H-indol-5-yloxy)-6-methoxy-7-(3-(pyrrolidin-1-yl)propoxy)quinazoline] | 47% | inhibits | 0.4 ± 0.2 nM | > 500 nM | 49% | 69% | 91% |  |
| Cn1cnc2c(F)c(Nc3ccc(Br)cc3Cl)c(C(=O)NOCCO)cc21 [AZD6244, 6-(4-Bromo-2-chloro-phenylamino)-7-fluoro-3-methyl-3H-benzoimidazole-5-carboxylic acid (2-hydroxy-ethoxy)-amide] |  |  |  |  |  |  |  | 44% |
